Here are results for 7 molecules from patent US8759256B2, “Herbicide composition comprising herbicide compound in acid form and acidifying agent” (priority 2001, dated 2014).

The conditions of series [1]: cited from earlier work; for pKas: Table 1, acidic herbicide; for pKa: imidazolinone acids.
For series [2], the system named is corn. The series can be described thus: greenhouse visual injury rating, Examples 9-10, corn. In kind it is in vivo. The conditions noted are these: Two Week. The text has this:
(§1) Each treatment in the experiment was replicated three times. An untreated control was also included in the experiment.
(§2) These treatments were compared to PCC-1190 and PCC-1189 without the addition of an acidifying agent, a standard imidazolinone acid formulation (PURSUIT and SCEPTER), and an untreated control.
(§3) For the experiments, greenhouse flats 26 cm by 6 cm deep were filled with Metro Mix 350 potting soil. The soil was pre-wetted before filling the flats. Six furrows were pressed into the soil in each flat using a custom designed form. Corn, tame oats, velvet leaf (not used in Example 10), wheat, pinto beans, and sunflower were planted in each tray. One species was planted in each of the six rows in each flat. Five seeds were planted in each row of corn, pinto bean, and sunflower. Six seeds were planted in each row of tame oat and wheat. Because velvet leaf seeds were so small, the seeds were sprinkled in each row and the number of such seeds were not counted. Each flat was covered with 2 cm of Metro Mix 350 potting soil and placed in the greenhouse. Greenhouse conditions were 28/20 C day/night temperatures and 16/8 h day/night periods. Light was supplemented with 400 W sodium halide lights. The plants were allowed to germinate and grow in the greenhouse for 2 weeks and then treated. Treatments were mixed using serial dilutions. Each dilution reduced the herbicide rate by one half. All acidifying agents (e.g., PCC-I174, LI-136, sulfuric acid, and phosphoric acid) were calculated and mixed to provide acid concentrations of 0.9%.
(§4) At the time of treatment, crops were at the following stages: corn—2 to 3 lf, tame oat—2 to 3 lf, velvet leaf 2 if (not used in Example 10), pinto bean—2-3 lf, wheat—4 to 5 lf, and sunflower-2 lf. Plants were treated using a greenhouse track sprayer equipped with an 8001E nozzle and calibrated to deliver 140 L ha-1 at the height of the crop canopy. Each treatment was simultaneously applied to three trays of plants, one for each replicate. After treatment, the plants were left in the head house to dry and then transferred to the greenhouse. Plants in each treatment were evaluated visually for injury 1 week and 2 weeks after treatment.
(§5) The injury caused by the herbicide treatment was rated visually. […] All the plants of each species in each replication were given a single rating. A rating of 0=no injury—the plants look the same as the untreated. A rating of 100=dead—usually highly necrotic, brown and no chance of producing seed.
(§6) The ingredients of the herbicide compositions as applied are listed in the following tables, and were diluted with water and used at the rates indicated for herbicide ingredients and acidifying agents.

Series [3] relates to sunflower. The series can be described thus: greenhouse visual injury rating, Examples 9-10, sunflower. In kind it is in vivo. The conditions noted are these: Two Week.
Text: as §1, §2, §3, §4, §5, §6

For series [4], the system named is tame oat. The series can be described thus: greenhouse visual injury rating, Examples 9-10, tame oat. The conditions noted are these: Two Week. In kind it is in vivo.
Text: as §1, §2, §3, §4, §5, §6

The test system of series [5] is pinto bean. The series can be described thus: greenhouse visual injury rating, Examples 9-10, pinto bean. The format is in vivo. The conditions noted are these: Two Week.
Text: as §1, §2, §3, §4, §5, §6

Series [6] has as its system wheat. The series can be described thus: greenhouse visual injury rating, Examples 9-10, wheat. The conditions noted are these: Two Week. The format is in vivo.
Text: as §1, §2, §3, §4, §5, §6

The mark [7] stands for this setting: PCC-1189 0.031 LB AE/A + PHOSPHORIC ACID 2 % V/V.
[8] abbreviates: PCC-1189 0.245 3 AE/A + PHOSPHORIC ACID 2 V/V.
[9] abbreviates: PCC-1189 0.49 3 AE/A + PHOSPHORIC ACID 2 V/V.
[10] abbreviates: PCC-1189 .0155 LB AE/A + PHOSPHORIC ACID 2 % V/V.
Where [11] appears, read: PCC-1189 .0613 LB AE/A + PHOSPHORIC ACID 2 % V/V.
[12] abbreviates: PCC-1189 .1225 LB AE/A + PHOSPHORIC ACID 2 % V/V.
The mark [13] stands for this setting: PCC-1189 0.031 LB AE/A + SULFURIC ACID 2 % V/V.
Where [14] appears, read: PCC-1189 0.245 LB AE/A + SULFURIC ACID 2 % V/V.
The mark [15] stands for this setting: PCC-1189 0.49 LB AE/A + SULFURIC ACID 2 % V/V.
Where [16] appears, read: PCC-1189 .0155 LB AE/A + SULFURIC ACID 2 % V/V.
Where [17] appears, read: PCC-1189 .0613 LB AE/A + SULFURIC ACID 2 % V/V.
[18] abbreviates: PCC-1189 .1225 LB AE/A + SULFURIC ACID 2 % V/V.

Take `O=C(O)CCCOc1ccc(Cl)cc1Cl` [2,4-DB]: the pKas in series [1] is given as 4.8.

With `CC(C)C1(C)N=C(c2nc3ccccc3cc2C(=O)O)NC1=O` (centres unmarked) [Imazaquin], in series [1], the pKas is recorded as 3.8 and the pKa entry was “approximately 3.8”.

Take `CCc1cnc(C2=NC(C)(C(C)C)C(=O)N2)c(C(=O)O)c1` (centres unmarked) [Imazethapyr]: in series [1], the pKas is on record as 3.9 and the pKa result is reported as “approximately 3.9”.

Turning to `O=P(O)(O)O` [PHOSPHORIC ACID], the “injury rated visually (0=no injury, 100=dead), Corn” value in series [2] (setting [7]) is 10.0; in series [2] (setting [8]) it was 10.0; in series [2] (setting [9]), 20.0; in series [2] (setting [10]) it was 10.0; in series [2] (setting [11]), 15.0; in series [2] (setting [12]), 10.0. Besides, the “injury rated visually (0=no injury, 100=dead), Sunflower” value worked out at 50.0 in series [3] (setting [7]); 60.0 in series [3] (setting [8]); 50.0 in series [3] (setting [9]); 50.0 in series [3] (setting [10]); 40.0 in series [3] (setting [11]); 50.0 in series [3] (setting [12]). Further, the “injury rated visually (0=no injury, 100=dead), Tame Oat” value in series [4] (setting [7]), in series [4] (setting [8]), in series [4] (setting [9]), in series [4] (setting [10]), in series [4] (setting [11]) and in series [4] (setting [12]) was 0.0 in each case. The “injury rated visually (0=no injury, 100=dead), Pinto Bean” value in series [5] (setting [7]) is on record as 20.0; in series [5] (setting [8]), 30.0; in series [5] (setting [9]) it was 30.0; in series [5] (setting [10]), 10.0; in series [5] (setting [11]), 30.0; in series [5] (setting [12]), 25.0. In addition, the “injury rated visually (0=no injury, 100=dead), Wheat” value in series [6] (setting [7]), in series [6] (setting [8]), in series [6] (setting [9]), in series [6] (setting [10]), in series [6] (setting [11]) and in series [6] (setting [12]) was 0.0 in each case.

Regarding `Nc1c(Cl)c(Cl)nc(C(=O)O)c1Cl` [Picloram], in series [1], the pKas is recorded as 2.3.

Turning to `O=S(=O)(O)O` [SULFURIC ACID], the “injury rated visually (0=no injury, 100=dead), Corn” value in series [2] (setting [13]) was 20.0; in series [2] (setting [14]), 20.0; in series [2] (setting [15]), 20.0; in series [2] (setting [16]), 10.0; in series [2] (setting [17]), 10.0; in series [2] (setting [18]) it was 10.0. Besides, the “injury rated visually (0=no injury, 100=dead), Sunflower” value is reported as 30.0 in series [3] (setting [13]); 60.0 in series [3] (setting [14]); 80.0 in series [3] (setting [15]); 30.0 in series [3] (setting [16]); 40.0 in series [3] (setting [17]); 40.0 in series [3] (setting [18]). For the same molecule, the “injury rated visually (0=no injury, 100=dead), Tame Oat” value in series [4] (setting [13]) came to 0.0; in series [4] (setting [14]), 0.0; in series [4] (setting [15]), 10.0; in series [4] (setting [16]) it was 0.0; in series [4] (setting [17]) it was 0.0; in series [4] (setting [18]), 0.0. For the same molecule, the “injury rated visually (0=no injury, 100=dead), Pinto Bean” value in series [5] (setting [13]) came out at 10.0; in series [5] (setting [14]), 20.0; in series [5] (setting [15]) it was 30.0; in series [5] (setting [16]), 10.0; in series [5] (setting [17]), 0.0; in series [5] (setting [18]), 10.0. Also, the “injury rated visually (0=no injury, 100=dead), Wheat” value was found to be 0.0 in series [6] (setting [13]); 0.0 in series [6] (setting [14]); 10.0 in series [6] (setting [15]); 0.0 in series [6] (setting [16]); 0.0 in series [6] (setting [17]); 0.0 in series [6] (setting [18]).

As to Imazamethbenz, in series [1], the pKas is 2.9 and the pKa result is “approximately 2.9”.
